Reference: patent US8119632B2, “Bicyclic amide derivatives for enhancing glutamatergic synaptic responses” (Cortex Pharmaceuticals, Inc., priority 2007, dated 2012)

What was measured:
AMPA receptor = assay: In vivo electrophysiology: amplitude of field EPSP in dentate gyrus of anesthetized animals; set-up: species or system rat; conditions: for In vivo Electrophysiology: % increase in the amplitude of the field EPSP in the dentate gyrus of rat: 10 mpk i.p.
Description: (§1) The electrophysiological effects of the invention compounds were tested in vivo in anesthetized animals according to the following procedures. Animals are maintained under anesthesia by phenobarbital administered using a Hamilton syringe pump. Stimulating and recording electrodes are inserted into the perforant path and dentate gyrus of the hippocampus, respectively. Once electrodes are implanted, a stable baseline of evoked responses are elicited using single monophasic pulses (100 μs pulse duration) delivered at 3/min to the stimulating electrode. Field EPSPs are monitored until a stable baseline is achieved (about 20-30 min), after which a solution of test compound is injected intraperitoneally and evoked field potentials are recorded. Evoked potentials were recorded for approximately 2 h following drug administration or until the amplitude of the field EPSP returns to baseline. In the latter instance, it is common that an iv administration is also carried out with an appropriate dose of the same test compound. Invention compounds were assayed in the in vivo electrophysiology assay described above and data for representative test compounds is shown in the Table.
The electrophysiological effects of invention compounds were tested in vivo in anesthetized animals according to the following procedures.
as §1, with “Animals” for “The electrophysiological effects of the invention compounds were tested in vivo in anesthetized animals according to the following procedures. Animals”, “are” for “were”, “compound.” for “compound. Invention compounds were assayed in the in vivo electrophysiology assay described above and data for representative test compounds is shown in the Table.”

SMILES	increase in amplitude of the field EPSP (AMPA receptor; rat dentate gyrus, 50 mg/kg i.p.)	melting point	In vivo Electrophysiology: % increase in the amplitude of the field EPSP in the dentate gyrus of rat (AMPA receptor)
O=C(c1ccc2nccnc2c1)N1CCCCC1 [CX516, 1-(quinoxalin-6-ylcarbonyl)piperdine, reference compound]	9%	–	–
O=C(c1ccc2nonc2c1)N1C2CCC1COC2 [Example 1, [2,1,3]-Benzoxadiazol-5-yl(3-oxa-8-azabicyclo[3.2.1]oct-8-yl)methanone]	–	139 to 140 °C	17%
O=C(c1ccc2nonc2c1)N1C2COCC1COC2 [Example 3, [2,1,3]-Benzoxadiazol-5-yl(3,7-dioxa-9-azabicyclo[3.3.1]non-9-yl)methanone]	–	197 to 199 °C	15%
O=C(c1ccc2nonc2c1)N1C2CCCC1COC2 [Example 2, [2,1,3]-Benzoxadiazol-5-yl(3-oxa-9-azabicyclo[3.3.1]non-9-yl)methanone]	–	128 to 130 °C	16%
